Test results published in ChEMBL document CHEMBL5385978, “Discovery of novel SOS1 inhibitors using machine learning” (RSC Med Chem, 2024).

Tested on: SOS1-KRAS (Homo sapiens), Q07889+P01116 [G12C]
Assay: Inhibition of his tagged SOS1/GST-tagged KRAS G12C mutant (unknown origin) protein-protein interaction at 25 ug/ml incubated for 2 hrs by HTRF assay relative to control
Format: protein-complex assay
Details: dose 25.0 µg/ml

Row | inhibition [%] | SMILES
1 | 2.1 | CC(C)CCN1CCCN(c2nc(Cc3ccccc3)nc3c2ncn3-c2ccccc2)CC1
2 | 6.3 | CC(C)OCCCNC1CCN(c2ncc(NC(=O)c3ccccc3)cc2C(=O)O)CC1
